From patent US20240166703A1, “ANTI-INFLAMMATORY PEPTIDE AND METHOD OF USE THEREOF” (The Regents of the University of California, priority 2021, published 2024)
“Also recorded” adds a separate entry of the source. One block for each molecule: values may come before it.

Experiments:
[1] = system: NF-κB DNA binding activity in HeLa cells; test: EMSA of NF-κB DNA binding, nuclear extracts of TNF-α-treated HeLa cells; format: cell-based, human; conditions: increasing concentrations 10-50 μM; TNF-α-treated HeLa cells
Experimental: (§1) To prepare nuclear and cytoplasmic protein extracts, HeLa, MEF, and RAW 264.7 cells were lysed in buffer containing 4.3 mM Na2HPO4, 1.47 mM KH2PO4 pH 7.4, 137 mM NaCl, 2.7 mM KCl, 1 mM DTT, 0.05% (v/v) NP-40, and 1×protease inhibitor cocktail for 10 minutes on ice and spun at 3,000 rpm at 4° C. for 10 minutes. The supernatant containing the cytoplasmic fraction was quantified by Bio-Rad protein assay to determine the total amount of protein. Pellets were resuspended in nuclear extraction buffer (25 mM Tris-HCl pH 7.5, 420 mM NaCl, 10% glycerol, 0.2 mM EDTA, 1 mM DTT, 0.5 mM PMSF, 1×protease inhibitor cocktail) once and then subjected to three lysis cycles (freeze at −80° C. and thaw at 37° C.). Finally, samples were centrifuged at 13,000 rpm at 4° C. for 20 minutes, and supernatants containing the soluble nuclear fraction were measured by the Bio-Rad protein assay to determine the total amount of protein. Nuclear and cytoplasmic extracts were aliquoted and kept at −80° C.
(§2) HeLa, MEF, RAW 264.7 cells were cultured in Dulbecco's MEM containing 10% fetal bovine […] supplemented with penicillin and streptomycin, at 37° C. in a humidity incubator with 5% CO2. RAW 264.7 cells were seeded and allowed to adhere for 24 hours then treated with NEMO^ActPep or NEMO^ActPep 6G at different concentrations 60 min before the LPS challenge (100 ng/ml). After 2 hours, nuclear and cytoplasmic extracts were collected. HeLa and MEF cells seeded for 24 hours then treated with NEMO^ActPep or NEMO^ActPep 6G at different concentrations 60 min before the TNF-α challenge (10 ng/ml) for 15 minutes and then nuclear and cytoplasmic extracts were collected. MEF cells were treated with NEMO^ActPep or NEMO^ActPep 6G at different concentrations 1 hour before the LTβR challenge (300 ng/ml). After 24 hours whole cell extracts were collected and aliquoted and kept at −80° C. for further experiments.
(§3) Electrophoretic mobility shift assay (EMSA) was performed using recombinant full length NF-κB ReIA homodimer as a positive control as previously described (45). […] The amount of protein in lysates was quantified by Bio-Rad protein assay. EMSA analysis with quantitative densitometry and signal intensity was quantitated using ImageJ software. […]
It is intrigued by the ability of such a small segment (residues 384-389) of human NEMO to mediate interaction with and promote activation loop phosphorylation of IKK2. […] NF-κB activity was measured by EMSA using nuclear extracts and radiolabeled KB DNA from the immunoglobulin kappa light chain gene (Ig-κB) as the probe (FIG. 5A).

[2] = system: canonical NF-κB signaling through IKK2 in HeLa cells; test: Western blot of canonical NF-κB signaling in TNF-α-treated HeLa cells; format: cell-based, human; conditions: increasing peptide concentrations
Experimental: as §1, §2
(§4) Equivalent amounts of protein from cell extracts was separated by SDS-PAGE and transferred to polyvinylidene fluoride (PVDF) membranes (Millipore, Bedford, MA, USA). The membrane was blocked with 5% bovine serum albumin (BSA) for 1 hour at room temperature and then the membrane was incubated with the primary antibodies overnight at 4° C. Antibodies for IKK2, His, HA, Myc, GST, Ubiquitin, IκBα, phospho-IKK2, p65/ReIA, p84, γ-Actin, p100/52, phospho-ERK, phospho-JNK, phospho-p38, ERK, JNK, and p38 were used for detecting multiple specific protein targets. After binding of an appropriate secondary antibody coupled to horseradish peroxidase, the immunoreactive bands were visualized by enhanced chemiluminescence substrate.
The inhibitory effects of TAT-NEMO^ActPep were further verified on canonical NF-κB signaling in HeLa cells by assessing IKK2 activation loop phosphorylation, IκBα degradation, and NF-κB ReIA/p65 subunit subcellular localization. Consistent with the observations of decreased nuclear NF-κB DNA binding activity by EMSA, treatment with TAT-NEMO^ActPep blocked IKK2 phosphorylation, IκBα proteolysis, and nuclear translocation of ReIA (FIG. 5B).

[3] = system: NF-κB DNA binding in RAW 264.7 murine macrophage cells; test: EMSA of NF-κB DNA binding, nuclear lysates of LPS-treated RAW 264.7 cells; format: cell-based; conditions: RAW 264.7 cells, 100 ng/mL LPS for 2 hours
Experimental: as §1
HeLa, MEF, RAW 264.7 cells were cultured in Dulbecco's MEM containing 10% fetal bovine […] supplemented with penicillin and streptomycin, at 37° C. in a humidity incubator with 5% CO2. RAW 264.7 cells were seeded and allowed to adhere for 24 hours then treated with NEMO^ActPep or NEMO^ActPep 6G at different concentrations 60 min before the LPS challenge (100 ng/ml). After 2 hours, nuclear and cytoplasmic extracts were collected. […]
as §3
It was then tested if the observed effect is universal across species and cell types. […] The effect of TAT-NEMO^ActPep on NF-κB DNA binding was also analyzed in MEF cells by EMSA.

[4] = system: canonical NF-κB signaling through IKK2 in RAW 264.7 murine macrophage cells; test: Western blot of canonical NF-κB signaling in LPS-treated RAW 264.7 cells; format: cell-based; conditions: 100 ng/mL LPS for 2 hours
Experimental: as §1, §2, §4
It was then tested if the observed effect is universal across species and cell types. The effect of TAT-NEMO^ActPep was tested in RAW 264.7 murine macrophage cells treated with 100 ng/mL purified bacterial lipopolysaccharide (LPS) for 2 hours. Again, NF-κB DNA binding and ReIA subunit nuclear localization were both inhibited as were phosphorylation of the IKK2 activation loop and degradation of IκBα. […] The effect of TAT-NEMO^ActPep on NF-κB DNA binding was also analyzed in MEF cells by EMSA.

[5] = system: non-canonical NF-κB signaling (IKK1, p100 processing); test: Western blot of p100 processing after LTβR engagement (non-canonical NF-κB signaling); format: cell-based; conditions: increasing peptide concentrations; HeLa cells per FIG. 5C legend
Experimental: as §2
Equivalent amounts of protein from cell extracts was separated by SDS-PAGE and transferred to polyvinylidene fluoride (PVDF) membranes (Millipore, Bedford, MA, USA). The membrane was blocked with 5% bovine serum albumin (BSA) for 1 hour at room temperature and then the membrane was incubated with the primary antibodies overnight at 4° C. […]

[6] = system: MAP kinases JNK, Erk2 and p38; test: Western blot of MAP kinase phosphorylation in TNF-α-treated HeLa cells; format: cell-based, human
Experimental: as §4
It was also tested if TAT-NEMO^ActPep has any effect on non-canonical NF-κB signaling. This alternative NF-κB signaling pathway is activated in response to stimulation of specific cytokine receptors and leads to activation of IKK1 and consequent processing of the p100 precursor to the mature NF-κB subunit p52 (30,31). […] To further investigate the possible involvement of TAT-NEMO^ActPep in other signaling pathways, the effect of the peptide on MAPK activation was tested by monitoring the phosphorylation status of JNK, Erk2, and p38 upon TNF-α treatment of HeLa cells. […]

[7] = target: T1, full length human IKK2 (recombinant, N-terminal hexahistidine-TEV tag) (human, UniProt O14920 1-756); test: GST pull-down with purified proteins, western blot
T1 construct: mature; Produced in Sf9 insect cells with baculovirus; also called IKKβ; full length IKK2; not shown: TEV cleavage site and vector residues of pFastBacHTb
T1 sequence: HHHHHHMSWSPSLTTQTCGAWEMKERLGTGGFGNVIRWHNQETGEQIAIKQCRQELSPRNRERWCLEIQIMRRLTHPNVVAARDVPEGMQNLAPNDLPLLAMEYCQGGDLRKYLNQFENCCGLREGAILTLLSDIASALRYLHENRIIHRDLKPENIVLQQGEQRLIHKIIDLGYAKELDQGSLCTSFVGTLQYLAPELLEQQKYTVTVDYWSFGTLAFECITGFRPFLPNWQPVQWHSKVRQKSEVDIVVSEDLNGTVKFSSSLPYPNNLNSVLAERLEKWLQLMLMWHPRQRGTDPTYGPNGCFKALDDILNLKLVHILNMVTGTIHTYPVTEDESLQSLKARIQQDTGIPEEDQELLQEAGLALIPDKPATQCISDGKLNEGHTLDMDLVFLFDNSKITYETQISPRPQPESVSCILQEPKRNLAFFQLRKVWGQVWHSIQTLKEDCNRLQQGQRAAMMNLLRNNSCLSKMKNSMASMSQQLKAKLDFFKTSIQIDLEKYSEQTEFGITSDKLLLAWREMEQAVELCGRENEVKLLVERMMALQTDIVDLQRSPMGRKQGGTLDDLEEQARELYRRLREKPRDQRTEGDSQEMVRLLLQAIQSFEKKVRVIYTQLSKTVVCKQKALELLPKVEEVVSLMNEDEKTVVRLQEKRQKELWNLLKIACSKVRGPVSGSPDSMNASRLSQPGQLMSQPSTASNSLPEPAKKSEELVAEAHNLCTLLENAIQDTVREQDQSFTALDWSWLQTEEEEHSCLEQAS

[8] = target: T2, IKK2 (purified recombinant; construct not stated for the experiment of FIG. 2D) (human, UniProt O14920 1-756, limits assumed); test: GST pull-down with purified proteins in the presence of Ub4, western blot
T2 sequence (looked up): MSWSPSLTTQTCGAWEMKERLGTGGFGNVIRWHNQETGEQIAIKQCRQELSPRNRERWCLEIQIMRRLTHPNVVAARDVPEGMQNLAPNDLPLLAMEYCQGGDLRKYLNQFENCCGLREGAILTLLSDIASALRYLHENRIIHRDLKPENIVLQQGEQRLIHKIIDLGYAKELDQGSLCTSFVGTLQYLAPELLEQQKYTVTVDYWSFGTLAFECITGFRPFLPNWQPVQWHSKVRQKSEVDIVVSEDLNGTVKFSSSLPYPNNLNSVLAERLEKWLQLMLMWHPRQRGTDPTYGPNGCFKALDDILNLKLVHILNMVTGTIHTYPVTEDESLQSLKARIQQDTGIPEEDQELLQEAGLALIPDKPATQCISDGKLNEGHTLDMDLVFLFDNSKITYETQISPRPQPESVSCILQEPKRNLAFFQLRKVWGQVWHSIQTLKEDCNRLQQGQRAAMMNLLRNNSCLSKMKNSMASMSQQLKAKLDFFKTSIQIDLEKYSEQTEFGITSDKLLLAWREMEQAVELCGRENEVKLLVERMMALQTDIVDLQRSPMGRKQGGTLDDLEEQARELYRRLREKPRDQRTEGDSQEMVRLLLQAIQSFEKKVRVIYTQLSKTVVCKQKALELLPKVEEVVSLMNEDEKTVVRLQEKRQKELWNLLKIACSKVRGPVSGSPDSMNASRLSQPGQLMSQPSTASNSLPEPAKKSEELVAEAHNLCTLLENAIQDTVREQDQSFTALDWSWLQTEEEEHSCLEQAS

Molecule: TAT-NEMO^ActPep 6G: control variant of TAT-NEMO^ActPep with NEMO residues 384-389 mutated to glycine (SEQ ID NO 3) (YGRKKRRQRRRGGLSSPLALPSGGGGGGEE) [reference compound]
NF-κB-dependent shift of radiolabeled probe (EMSA) [1]: reduction was not observed; also recorded: does not | IKK2 activation loop phosphorylation (western blot) [2]: showed no such effects | IκBα degradation / proteolysis (western blot) [2]: showed no such effects | NF-κB ReIA/p65 subunit nuclear localization (western blot) [2]: showed no such effects | NF-κB DNA binding [3]: did not show such effects | ReIA subunit nuclear localization (western blot) [4]: did not show such effects | degradation of IκBα (western blot) [4]: did not show such effects | phosphorylation of the IKK2 activation loop (western blot) [4]: did not show such effects | processing of p100 in response to LTβR engagement (western blot) [5]: not observed any effect; also recorded: no change in the extent of p100 processing | phosphorylation of JNK, Erk2 and p38 MAP kinases (western blot) [6]: Neither TAT-NEMO^ActPep nor TAT-NEMO^ActPep 6G influenced; also recorded: no effect

binding result [7]: no binding
B1: GST-NEMO^111-419 (other, human, UniProt Q9Y6K9 111-419, looked up)
chain: KLDLKRQKEQALREVEHLKRCQQQMAEDKASVKAQVTSLLGELQESQSRLEAATKECQALEGRARAASEQARQLESEREALQQQHSVQVDQLRMQGQSVEAALRMERQAASEEKRKLAQLQVAYHQLFQEYDNHIKSSVVGSERKRGMQLEDLKQQLQQAEEALVAKQEVIDKLKEEAEQHKIVMETVPVLKAQADIYKADFQAERQAREKLAEKKELLQEQLEQLQREYSKLKASCQESARIEDMRKRHVEVSQAPLPPAPAYLSSPLALPSQRRSPPEEPPDFCCPKCQYQAPDMDTLQIHVMECIE
notes: not shown: glutathione-S-transferase (GST) tag of vector pGEX4T-2, N-terminal

binding result [8]: no binding
B2: GST-NEMO^241-419 6G (other, human, UniProt Q9Y6K9 241-419, looked up)
chain: YDNHIKSSVVGSERKRGMQLEDLKQQLQQAEEALVAKQEVIDKLKEEAEQHKIVMETVPVLKAQADIYKADFQAERQAREKLAEKKELLQEQLEQLQREYSKLKASCQESARIEDMRKRHVEVSQAPLPPAPAYLSSPLALPSGGGGGGEEPPDFCCPKCQYQAPDMDTLQIHVMECIE
notes: as for B1

binding result [8]: no binding
B3: GST-NEMO^241-419 3G (other, human, UniProt Q9Y6K9 241-419, looked up)
chain: YDNHIKSSVVGSERKRGMQLEDLKQQLQQAEEALVAKQEVIDKLKEEAEQHKIVMETVPVLKAQADIYKADFQAERQAREKLAEKKELLQEQLEQLQREYSKLKASCQESARIEDMRKRHVEVSQAPLPPAPAYLSSPLALPSGGGSPPEEPPDFCCPKCQYQAPDMDTLQIHVMECIE
notes: as for B1
